Test results from patent US5775339A, “Photodynamic therapy of pigment-related lesions” (Pharmacyclics, Inc., priority 1997, dated 1998).
Where “and” joins values, the source holds several entries; their conditions need not be identical. Identical values can stand only once. Entries after “also recorded” stand apart in the source; their conditions may differ.

Legend:
[1] = tested on: B16 murine melanoma; conditions: B16 murine melanoma model; cited from earlier work
[2] = Biodistribution of LuT2BET in B16 melanoma-bearing mice (fluorescence of tissue extracts and plasma); type: in vivo, C57 mice
Experimental: The present example provides results from a study of the biodistribution of lutetium texaphyrin in melanoma-bearing mice. The biodistribution of LuT2BET was analyzed in C57 mice bearing B16 melanoma at 3 h, 5 h, and 24 h after an intravenous administration of 10 or 20 μmol/kg.
(§1) Melanoma Cells: B16F10 melanotic melanoma murine cells were obtained from the University of California, San Francisco Cell Culture Facility. These cells are highly pigmented and metastatic in vivo. Cells were grown in Iscove's Modified Dulbeccos' Medium (Gibco, Grand Island, N.Y.) supplemented with 10% fetal bovine serum (JRH Biosciences, Woodland, Calif.) and penicillin/streptomycin (Sigma, St. Louis, Mo.).
(§2) Animals and Tumor Model: Inbred C57BL/6N female mice, (C57 mice) seven to eight weeks of age, were obtained from Simonsen Laboratories Inc. (Gilroy, Calif.). The right flanks of the mice were shaved and depiled the day prior to tumor inoculation. B16F10 cells (5×10^5 cells in 0.05 mL PBS) were injected subcutaneously into the right hind flanks. Tumor size, i.e., length (l), width (w), and height (h), was measured 3 times a week with a vernier caliper. Tumor volumes were calculated using the formula for a hemiellipsoid (Rockwell and Kallman, 1972): […]
Biodistribution studies were performed on tumors having surface diameters of between about 5.5-7 mm and a depth of 4-6 mm.
Tissue Extraction Procedure: LuT2BET was administered via tail-vein injection at 10 or 20 μmol/kg. Tissues and plasma were analyzed at 3, 5 or 24 h post administration of the photosensitizer. Blood was collected in tubes containing 5 mg of solid EDTA and erythrocytes were removed by centrifugation. Plasma samples (125 μL) were mixed with 10 mM TRITON X-100® and analyzed for texaphyrin content by fluorescence. […] Samples were then analyzed for lutetium texaphyrin content by fluorescence (excitation=450 nm, emission=700-800 nm). […] Sensitizer accumulation is expressed as μg drug/g tissue (wet weight) or per mL plasma.
Statistical analysis: Values are expressed as mean±SD. […]

[3] = tested on: B16F10 melanoma; experiment: PDT response (tumor regrowth and survival) to LuT2BET and photoirradiation in melanoma-bearing mice; type: in vivo, C57 mice
Experimental: as §1, §2
Statistical analysis: Values are expressed as mean±SD. Values were compared using the unpaired Student's t-test. In the longevity analysis, Kaplan-Meier survival curves and log rank analysis for statistical significance were used. Statistical significance was assumed if P<0.05.
The present example provides results of a study wherein melanoma-bearing mice were administered LuT2BET and photoirradiated. […] PDT response was dependent upon drug dose, irradiation exposure and administration time.
PDT Protocol: C57 mice, bearing B16F10 melanoma as described in Example 1, were used for PDT experiments when the tumors reached surface diameters of between 4-6 mm and a depth of 2.5-3 mm. […] A 400 μm diameter fiberoptic cable coupled the laser to a microlens which produced uniform light intensity in the treatment field. Light fluences ranged between 150 and 600 J/cm^2, and the power density was set at 150 mW/cm^2 as measured with a power meter (Scientech, Boulder, Colo.). The mice were restrained with laboratory tape during photoirradiation.

[4] = tested on: mammary carcinoma SMT-F; experiment: Radiolabeled [14C]-LuT2BET uptake in SMT-F bearing mice; type: in vivo; conditions: 8.64 μmol/kg; for drug uptake (tumor): radiolabeled
Experimental: A dose of 8.64 μmol/kg LuT2BET produced drug uptake values of 5.1 μg/g, 4.7 μg/g, and 2.8 μg/g at 3 h, 5 h, and 24 h after injection, yielding tumor:muscle ratios of 8.45:1, 10:1 and 7:1, respectively.

[5] = tested on: melanoma; type: in vivo, human; conditions: 0.5 μmol/kg i.v., 150 J/cm^2
Experimental: A patient with recurrent melanoma received a single dose of LuT2BET (0.5 μmol/kg; 2 mM in 5% mannitol/water; (a human equivalent of 10% of the mouse LD50)), administered intravenously, followed three hours later by photoirradiation by laser (732 nm light, 150 J/cm^2 at a power density of 75 mW/cm^2 using a LAMBDA PLUS® laser, Coherent, Palo Alto, Calif.). Four fields and a total of ten individual lesions were treated.

[6] = set-up: species or system C57 mice; conditions: mouse, in vivo
From the text: Tumor Temperature Measurements: Tumor temperature during laser irradiation was monitored with a 33 gauge hypodermic thermocouple probe (Omega Engineering, Stamford, Conn.) placed percutaneously at the base of the tumor.

[7] = Absorption of LuT2BET in 5% mannitol; type: physicochemical; conditions: 732 nm
Experimental: LuT2BET: The synthesis and chemical analysis of lutetium texaphyrin (LuT2BET, texaphyrin A2 of Table 1 where M is lutetium) was provided in U.S. Pat. Nos. 5,252,720 and 5,457,183 and in PCT publication WO 95/10307. LuT2BET was dissolved in 5% mannitol at a 2 mM concentration. LuT2BET absorbs strongly in the far-red region of the electromagnetic spectrum, having a molar extinction coefficient of 23,000 M^-1 cm^-1 in this solution at 732 nm, the wavelength used for photoirradiation.

[8] = 10 μmol/kg, 300 J/cm^2, 5 h, n = 6
[9] = 10 μmol/kg, 500 J/cm^2, 5 h, n = 11
[10] = 20 μmol/kg, 150 J/cm^2, 24 h, n = 7
[11] = 20 μmol/kg, 300 J/cm^2, 24 h, n = 7

Compound: silicon(IV)-naphthalocyanine
- tumor retardation not associated with thermal effects [1]: modest
- tumor selectivity [1]: no tumor selectivity

Compound: CC(=O)[O-].CC(=O)[O-].CCc1c(CC)c2cc3nc(cnc4cc(OCCOCCOCCOC)c(OCCOCCOCCOC)cc4ncc4nc(cc1[n-]2)C(CCCO)=C4C)C(C)=C3CCCO.O.[Lu+3] [LuT2BET]
- toxicity ([2]; 10 or 20 μmol/kg i.v., biodistribution study): no toxicity was observed
- tumor levels compared with plasma, muscle and skin ([2]; mouse, in vivo): higher than plasma, muscle and skin at all three time points
- uptake into B16 melanoma compared to SMT-F ([2]; mouse, in vivo): increased uptake of lutetium texaphyrin into B16 melanoma was observed
- MST (median survival time following PDT) ([3]; 10 μmol/kg, 150 J/cm^2, 3 h, n = 3): 23 days
- Regrowth (time to reach ten times the original tumor volume) ([3]; 10 μmol/kg, 150 J/cm^2, 3 h, n = 12): 15.0 ± 3.38 days
- inhibition of tumor regrowth, in words ([3]; 10 μmol/kg, 300 J/cm^2, 5 h): no detectable inhibition of tumor regrowth was seen
- MST (median survival time following PDT) [3, 8]: 17 days
- Regrowth (time to reach ten times the original tumor volume) [3, 8]: 8.5 ± 3.0 days and 8.5 days
- PDT effect, in words ([3]; 10 μmol/kg, 400, 500 and 600 J/cm^2, 5 h): significantly increased the PDT effect
- Regrowth (time to reach ten times the original tumor volume) ([3]; 10 μmol/kg, 400 J/cm^2, 5 h, n = 7): 11.6 ± 2.1 days
- MST (median survival time following PDT) ([3]; 10 μmol/kg, 400 J/cm^2, 5 h, n = 8): 18.5 days
- MST (median survival time following PDT) [3, 9]: 23 days
- Regrowth (time to reach ten times the original tumor volume) [3, 9]: 13.2 ± 3.5 days
- Regrowth (time to reach ten times the original tumor volume) ([3]; 10 μmol/kg, 600 J/cm^2, 5 h, n = 5, P<0.0001): 15.6 ± 3.6 days and 15.6 days
- MST (median survival time following PDT) ([3]; 10 μmol/kg, 600 J/cm^2, 5 h, n = 6): 28 days
- survival time, in words ([3]; 10 μmol/kg, at least about 500 J/cm^2): A significant increase in survival time
- Regrowth (time to reach ten times the original tumor volume) ([3]; 10 μmol/kg, no light, n = 5): 7.8 ± 0.8 days
- MST (median survival time following PDT) ([3]; 10 μmol/kg, no light, n = 6): 17.5 days
- Regrowth (time to reach ten times the original tumor volume) ([3]; 20 μmol/kg, 150 J/cm^2, 5 h, n = 8): 10.6 ± 2.9 days
- MST (median survival time following PDT) ([3]; 20 μmol/kg, 150 J/cm^2, 5 h, n = 8, P=0.011): 26 days
- tumor regrowth, in words ([3]; 20 μmol/kg, 150 J/cm^2, 24 h): did not yield any significant change in tumor regrowth
- MST (median survival time following PDT) [3, 10]: 19 days
- Regrowth (time to reach ten times the original tumor volume) [3, 10]: 6.7 ± 0.8 days
- survival time, in words ([3]; 20 μmol/kg, 150 and 300 J/cm^2, 5 h): A significant increase in survival time
- Regrowth (time to reach ten times the original tumor volume) ([3]; 20 μmol/kg, 300 J/cm^2, 5 h, n = 13): 15.3 ± 2.6 days and 15.3 days
- MST (median survival time following PDT) ([3]; 20 μmol/kg, 300 J/cm^2, 5 h, n = 13, P=0.0002): 27 days
- MST (median survival time following PDT) [3, 11]: 20 days
- Regrowth (time to reach ten times the original tumor volume) [3, 11]: 9.6 ± 2.1 days and 9.6 days
- tumor response, in words ([3]; 20 μmol/kg, irradiated 5 h after administration, P<0.001): A significant response
- MST (median survival time following PDT) ([3]; 20 μmol/kg, no light, n = 5): 15 days
- Regrowth (time to reach ten times the original tumor volume) ([3]; 20 μmol/kg, no light, n = 5): 8.2 ± 2.3 days
- tumor regrowth, in words ([3]; 20 μmol/kg, sensitizer alone): No significant difference in tumor regrowth
- survival time, in words ([3]; LuT2BET alone, 10 and 20 μmol/kg, vs controls): no apparent difference between light alone, LuT2BET alone, and the controls
- longevity / survival time overall, in words ([3]; PDT, 10 or 20 μmol/kg): increased longevity of the treated animals; also recorded: in some cases the longevity of the animals was doubled; also recorded: significantly increased the survival time of the melanoma-bearing mice
- retardation of tumor growth overall, in words ([3]; PDT, 10 or 20 μmol/kg): significant retardation of growth of the tumor; also recorded: efficacious in the retardation of the highly pigmented B16 melanoma in C57 mice
- tumor:muscle ratio ([4]; 3 h): 8.45 :1
- drug uptake (tumor) ([4]; 3 h): 5.1 µg/g
- tumor:muscle ratio ([4]; 5 h): 10 :1
- drug uptake (tumor) ([4]; 5 h): 4.7 µg/g
- tumor:muscle ratio ([4]; 24 h): 7 :1
- drug uptake (tumor) ([4]; 24 h): 2.8 µg/g
- response of remaining lesions ([5]; several days post-therapy): the remaining lesions showed no change
- response of several larger lesions ([5]; several days post-therapy): several of the larger lesions had decreased in size
- response of several smaller lesions ([5]; several days post-therapy): several of the smaller lesions had disappeared
- response of lesions at two months ([5]; two months post-therapy): continued to show improvement
- increase in tumor temperature [6]: No measurable increase in tumor temperature
- molar extinction coefficient [7]: 23,000 M^-1 cm^-1
